“And” between values parts separate entries of the source, which are not always exact repeats. Identical values can stand only once.
Legend:
Experiment in all cases: biochemical
Format in all cases: biochemical
[1] = molecular target: T1, EfBChE (butyrylcholinesterase from equine serum) (Equus caballus, UniProt P81908); details: for SI, selectivity index based on IC50 values (EeAChE vs EfBChE): ratio of EfBChE to EeAChE IC50 values; for fold better than donepezil against EfBChE: ratio of IC50 values; for IC50: with standard error, 25 °C, 10 min preincubation, read-out: IC50, inhibition of EfBChE
T1 construct: EfBChE from equine serum (Equus ferus); from tissue; host or cells: equine serum
T1 sequence (P81908 whole entry): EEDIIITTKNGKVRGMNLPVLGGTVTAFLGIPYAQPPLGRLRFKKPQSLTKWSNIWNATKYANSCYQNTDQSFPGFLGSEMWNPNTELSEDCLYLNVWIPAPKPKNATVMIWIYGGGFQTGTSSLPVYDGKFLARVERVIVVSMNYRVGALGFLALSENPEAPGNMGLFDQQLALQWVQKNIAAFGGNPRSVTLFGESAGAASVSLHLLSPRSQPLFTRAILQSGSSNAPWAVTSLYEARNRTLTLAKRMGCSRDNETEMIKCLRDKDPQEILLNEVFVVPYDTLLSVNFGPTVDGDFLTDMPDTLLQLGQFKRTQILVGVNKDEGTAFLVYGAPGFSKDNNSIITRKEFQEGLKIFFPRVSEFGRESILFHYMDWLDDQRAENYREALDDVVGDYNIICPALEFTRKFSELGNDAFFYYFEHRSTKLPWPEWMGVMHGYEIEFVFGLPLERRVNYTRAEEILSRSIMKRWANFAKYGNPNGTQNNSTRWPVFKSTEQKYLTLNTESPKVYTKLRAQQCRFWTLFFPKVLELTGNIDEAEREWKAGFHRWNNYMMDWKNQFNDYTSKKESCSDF
Protocol: (§1) Experiments were performed as previously described. […] All assays were performed in duplicate or triplicate.

[2] = molecular target: EeAChE (acetylcholinesterase from Electrophorus electricus) (Electrophorus electricus, UniProt O42275); details: for fold enhanced potency against EeAChE compared to donepezil: ratio of IC50 values; for IC50: with standard error, 25 °C, 10 min preincubation, read-out: IC50, inhibition of EeAChE
EeAChE (acetylcholinesterase from Electrophorus electricus), sequence (O42275 24-633): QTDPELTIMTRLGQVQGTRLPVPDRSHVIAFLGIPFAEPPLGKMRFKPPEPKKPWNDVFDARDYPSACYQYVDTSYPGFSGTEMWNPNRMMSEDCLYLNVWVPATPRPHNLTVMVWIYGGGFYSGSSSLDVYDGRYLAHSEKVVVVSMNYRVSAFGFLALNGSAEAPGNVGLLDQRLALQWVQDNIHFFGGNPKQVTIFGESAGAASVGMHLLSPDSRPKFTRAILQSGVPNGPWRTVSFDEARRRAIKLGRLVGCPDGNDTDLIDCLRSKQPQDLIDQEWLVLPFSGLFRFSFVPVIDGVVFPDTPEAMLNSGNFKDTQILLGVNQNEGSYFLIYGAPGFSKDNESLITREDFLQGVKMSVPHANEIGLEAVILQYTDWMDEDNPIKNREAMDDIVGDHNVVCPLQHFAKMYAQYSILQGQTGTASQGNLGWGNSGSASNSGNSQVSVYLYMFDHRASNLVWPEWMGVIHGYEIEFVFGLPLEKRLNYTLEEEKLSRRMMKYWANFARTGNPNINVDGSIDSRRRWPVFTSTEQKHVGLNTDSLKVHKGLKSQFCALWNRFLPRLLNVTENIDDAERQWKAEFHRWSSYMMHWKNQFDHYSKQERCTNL
Protocol: as §1

[3] = molecular target: T2, BACE1 (Homo sapiens, UniProt P56817); details: for IC50: fluorescence after 2 h, read-out: IC50, inhibition of BACE1
T2 construct: purchased Millipore-Sigma CS0010-1KT
T2 sequence (P56817 46-457): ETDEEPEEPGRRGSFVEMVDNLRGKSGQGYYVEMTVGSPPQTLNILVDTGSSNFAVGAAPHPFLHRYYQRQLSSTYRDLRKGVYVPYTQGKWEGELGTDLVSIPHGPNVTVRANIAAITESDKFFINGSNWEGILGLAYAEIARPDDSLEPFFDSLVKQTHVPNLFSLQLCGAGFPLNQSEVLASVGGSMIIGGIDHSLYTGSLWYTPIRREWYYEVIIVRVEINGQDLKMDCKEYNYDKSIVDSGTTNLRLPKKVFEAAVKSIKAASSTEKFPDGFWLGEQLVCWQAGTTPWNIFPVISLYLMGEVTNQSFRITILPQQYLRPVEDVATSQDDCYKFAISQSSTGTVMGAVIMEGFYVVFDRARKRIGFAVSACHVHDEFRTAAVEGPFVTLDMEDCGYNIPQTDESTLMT
Protocol: Inhibition of BACE1 was tested using the commercial kit (cat CS0010-1KT, Millipore-Sigma, St. Louis, MO, USA) following the directions accompanying the kit. […] Dilutions were originally performed in DMSO, and 2 μL added to the reaction in order to account for any moderation of activity from the vehicle. Fluorescent measurements were taken after 2 h. The resulting rates were normalized to the reaction without inhibitor. In order to get an appropriate sigmoidal fit, two additional points (400 and 1000 μM) were added to the data when needed.

[4] = molecular target: HsAChE (acetylcholinesterase from Homo sapiens) (Homo sapiens, UniProt P22303)
HsAChE (acetylcholinesterase from Homo sapiens), sequence (P22303 32-614): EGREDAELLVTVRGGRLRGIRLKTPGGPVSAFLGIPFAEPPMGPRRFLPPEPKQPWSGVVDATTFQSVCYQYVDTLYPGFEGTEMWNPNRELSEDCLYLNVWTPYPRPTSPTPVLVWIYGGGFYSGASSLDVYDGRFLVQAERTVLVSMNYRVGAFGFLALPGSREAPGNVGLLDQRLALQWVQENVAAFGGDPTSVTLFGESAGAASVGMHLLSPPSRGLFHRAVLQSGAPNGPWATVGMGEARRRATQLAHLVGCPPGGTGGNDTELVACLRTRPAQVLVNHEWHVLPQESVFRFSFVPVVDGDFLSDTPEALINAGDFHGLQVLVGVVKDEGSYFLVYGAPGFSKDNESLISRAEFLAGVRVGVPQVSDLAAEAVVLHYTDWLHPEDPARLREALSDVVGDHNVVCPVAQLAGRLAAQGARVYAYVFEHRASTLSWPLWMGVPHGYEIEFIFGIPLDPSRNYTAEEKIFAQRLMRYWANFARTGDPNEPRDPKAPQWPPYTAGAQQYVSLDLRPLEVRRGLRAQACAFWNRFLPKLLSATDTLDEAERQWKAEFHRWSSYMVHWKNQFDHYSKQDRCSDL
Protocol: as §1

Row | Structure (SMILES) | SI, selectivity index based on IC50 values (EeAChE vs EfBChE) [1] | fold better than donepezil against EfBChE [1] | IC50 [1] | fold enhanced potency against EeAChE compared to donepezil [2] | IC50 [2] | IC50 [3] | fold more selective for EfBChE (over EeAChE) [1] | SI, selectivity index of EeAChE versus HsAChE, based on IC50 values [4] | IC50 ([4]; 37 °C, read-out: IC50, inhibition of HsAChE) | fold better inhibition of HsAChE than donepezil ([4]; ratio of IC50 values) | BACE1 IC50 within fold of the IC50 of donepezil [3]
1 | COc1cc2c(cc1OCc1ccccc1C(F)(F)F)C(=O)C(CC1CCN(Cc3ccccc3)CC1)C2 (centres unmarked) [Compound 8p] | 7.8 | 8 fold | 254 nM and 250 nM | 4 fold | 32 ± 10 nM | 34000 ± 9000 nM |  |  |  |  | 
2 | COc1cc2c(cc1OCc1ccc(F)cc1)C(=O)C(CC1CCN(Cc3ccccc3)CC1)C2 (centres unmarked) [Compound 8m] | 7.0 |  | 570 ± 100 nM |  | 81 ± 5 nM | ~100000 nM |  |  |  |  | 
3 | COc1cc2c(cc1OCCCN)C(=O)C(CC1CCN(Cc3ccccc3)CC1)C2 (centres unmarked) [Compound 8a, 6-[(3-Aminopropyl)oxy]-2-[(1-benzylpiperidin-4-yl)methyl]-5-methoxy-2,3-dihydroinden-1-one] | 11 | 4 fold | 573 nM and 570 nM |  | 54 ± 3 nM | 95000 ± 12000 nM |  |  |  |  | 
4 | COc1ccc(COc2cc3c(cc2OC)CC(CC2CCN(Cc4ccccc4)CC2)C3=O)cc1 (centres unmarked) [Compound 8j] | 5.2 |  | 668 nM and 670 nM |  | 125 nM and 130 nM |  |  |  |  |  | 
5 | COc1cc2c(cc1O)C(=O)C(CC1CCN(Cc3ccccc3)CC1)C2 (centres unmarked) [Compound 7, 2-[(1-Benzylpiperidin-4-yl)methyl]-6-hydroxy-5-methoxy-2,3-dihydroinden-1-one] | 11 |  | 4300 ± 400 nM |  | 409 nM and 410 nM |  |  |  |  |  | 
6 | COc1cc2c(cc1OCCCl)C(=O)C(CC1CCN(Cc3ccccc3)CC1)C2 (centres unmarked) [Compound 8d, 2-[(1-Benzylpiperidin-4-yl)methyl]-6-[(chloroethyl)oxy]-5-methoxy-2,3-dihydroinden-1-one] | 22 | 2 fold | 1300 ± 100 nM | 2 fold | 59 ± 4 nM | ~100000 nM |  |  |  |  | 
7 | COc1cc2c(cc1OCc1ccc([N+](=O)[O-])cc1)C(=O)C(CC1CCN(Cc3ccccc3)CC1)C2 (centres unmarked) [Compound 8k] | 3.5 |  | 462 nM and 460 nM |  | 126 nM and 130 nM |  |  |  |  |  | 
8 | COc1cc2c(cc1OCc1ccc(F)cc1F)C(=O)C(CC1CCN(Cc3ccccc3)CC1)C2 (centres unmarked) [Compound 8q] | 4.4 | 4 fold | 483 nM and 480 nM |  | 113 nM and 110 nM | 37000 ± 5000 nM |  |  |  |  | 
9 | COc1cc2c(cc1OCc1c(F)c(F)c(F)c(F)c1F)C(=O)C(CC1CCN(Cc3ccccc3)CC1)C2 (centres unmarked) [Compound 8v] |  | 18 fold | 114 nM and 110 nM |  | 172 nM and 170 nM | 29000 ± 6000 nM | 1.5 fold |  |  |  | 
10 | COc1cc2c(cc1OCc1ccc(Br)cc1F)C(=O)C(CC1CCN(Cc3ccccc3)CC1)C2 (centres unmarked) [Compound 8t] | 6.9 |  | 372 nM and 370 nM | 2.2 fold | 54 ± 7 nM | 169000 ± 2000 nM |  | 30 | 1.8 ± 0.6 nM | 18 fold | 
11 | CCCOc1cc2c(cc1OC)CC(CC1CCN(Cc3ccccc3)CC1)C2=O (centres unmarked) [Compound 8c, 2-[(1-Benzylpiperidin-4-yl)methyl]-5-methoxy-6-propoxy-2,3-dihydroinden-1-one] | 15 |  | 2050 nM and 2100 nM |  | 140 ± 20 nM | 6100 ± 100 nM |  |  |  |  | ≤ 5 fold
12 | COc1cc2c(cc1OCc1cccc(F)c1)C(=O)C(CC1CCN(Cc3ccccc3)CC1)C2 (centres unmarked) [Compound 8n] | 6.0 |  | 959 nM and 960 nM |  | 156 nM and 160 nM | 12000 ± 3000 nM |  |  |  |  | 
13 | COc1cc2c(cc1OCCBr)C(=O)C(CC1CCN(Cc3ccccc3)CC1)C2 (centres unmarked) [Compound 8e, 2-[(1-Benzylpiperidin-4-yl)methyl]-6-[(bromoethyl)oxy]-5-methoxy-2,3-dihydroinden-1-one] | 30 | 2 fold | 1290 nM and 1300 nM | 3 fold | 44 ± 3 nM | 7900 ± 900 nM |  |  |  |  | ≤ 5 fold
14 | COc1cc2c(cc1OCc1ccccc1F)C(=O)C(CC1CCN(Cc3ccccc3)CC1)C2 (centres unmarked) [Compound 8o] | 6.3 |  | 764 nM and 760 nM |  | 124 nM and 120 nM | 21000 ± 4000 nM |  |  |  |  | 
15 | COc1cc2c(cc1OCc1ccc(Br)cc1)C(=O)C(CC1CCN(Cc3ccccc3)CC1)C2 (centres unmarked) [Compound 8l] | 10 |  | 720 ± 100 nM |  | 71 ± 15 nM | 3400 ± 100 nM |  |  |  |  | ≤ 5 fold
16 | COc1cc2c(cc1OCCCCBr)C(=O)C(CC1CCN(Cc3ccccc3)CC1)C2 (centres unmarked) [Compound 8f, 2-[(1-Benzylpiperidin-4-yl)methyl]-6-[(bromobutyl)oxy]-5-methoxy-2,3-dihydroinden-1-one] | 21 |  | 1280 nM and 1300 nM |  | 61 ± 7 nM | 7900 ± 2400 nM |  |  |  |  | ≤ 5 fold
17 | COc1cc2c(cc1OCc1c(F)cccc1F)C(=O)C(CC1CCN(Cc3ccccc3)CC1)C2 (centres unmarked) [Compound 8s] | 28 | 5 fold | 438 nM and 440 nM | eight | 16 ± 1 nM | 30000 ± 8000 nM |  |  |  |  | 
18 | COc1cc2c(cc1OCc1c(F)cc(F)cc1F)C(=O)C(CC1CCN(Cc3ccccc3)CC1)C2 (centres unmarked) [Compound 8u] | 7.4 | 10 fold | 199 nM and 200 nM | five | 27 ± 4 nM | 91000 ± 14000 nM |  |  |  |  | 
19 | COc1cc2c(cc1OCc1ccc(C)cc1)C(=O)C(CC1CCN(Cc3ccccc3)CC1)C2 (centres unmarked) [Compound 8i] | 4.3 |  | 997 nM and 1000 nM |  | 228 nM and 230 nM | 58000 ± 2000 nM |  |  |  |  | 
20 | COc1cc2c(cc1OCc1ccccc1)C(=O)C(CC1CCN(Cc3ccccc3)CC1)C2 (centres unmarked) [Compound 8h] | 5.4 | 3 fold | 704 nM and 700 nM |  | 131 nM and 130 nM | 58000 ± 1000 nM |  |  |  |  | 
21 | COc1cc2c(cc1OCCCCCCCCCCCCBr)C(=O)C(CC1CCN(Cc3ccccc3)CC1)C2 (centres unmarked) [Compound 8g, 2-[(1-Benzylpiperidin-4-yl)methyl]-6-[(bromododecyl)oxy]-5-methoxy-2,3-dihydroinden-1-one] | 6.6 |  | 5150 nM and 5200 nM |  | 789 nM and 790 nM |  |  |  |  |  | 
22 | COc1cc2c(cc1OCCN)C(=O)C(CC1CCN(Cc3ccccc3)CC1)C2 (centres unmarked) [Compound 8b, 6-[(3-Aminoethyl)oxy]-2-[(1-benzylpiperidin-4-yl)methyl]-5-methoxy-2,3-dihydroinden-1-one] | 23 | 4 fold | 478 nM and 480 nM | 6 fold | 21 ± 3 nM | ~100000 nM |  |  |  |  | 
23 | COc1cc2c(cc1OCc1cc(F)ccc1F)C(=O)C(CC1CCN(Cc3ccccc3)CC1)C2 (centres unmarked) [Compound 8r] | 6.7 | 3 fold | 601 nM and 600 nM |  | 90 ± 9 nM | ~100000 nM |  |  |  |  | 

Source: publication PMC6321525 (Molecules, 2018)
